In PubChem BioAssay AID214 (DTP/NCI, 2004):
Records with an inconclusive call do not appear.

Tested on: B6C3F1 mice, colon carcinoma 38 s.c., T/C
Test: NCI In Vivo Anticancer Drug Screen. Data for tumor model Colon Carcinoma 38 (subcutaneous) in B6C3F1 mice
Conditions: higher = larger tumour
Description: The antitumor activity of compounds was measured in mice bearing transplantable tumors. Survival or tumor size were measured and the results are expressed as the measurement made in the treated group (T) divided by the measurement made in the vehicle treated control group (C). The tumor model used in this assay is Colon Carcinoma 38 (subcutaneous) in B6C3F1 mice

[1] = endpoint: median tumor weight (est.), dose: 6.25 mg/kg/injection, schedule: Q07DX002 (ip), vehicle: saline
[2] = endpoint: median tumor weight (est.), dose: 12.5 mg/kg/injection, schedule: Q07DX002 (ip), vehicle: saline
[3] = endpoint: median tumor weight (est.), dose: 25.0 mg/kg/injection, schedule: Q07DX002 (ip), vehicle: saline
[4] = endpoint: median tumor weight (est.), dose: 50.0 mg/kg/injection, schedule: Q07DX002 (ip), vehicle: saline
[5] = endpoint: median tumor weight (est.), dose: 200.0 mg/kg/injection, schedule: Q07DX002 (ip), vehicle: saline
[6] = endpoint: median tumor weight (est.), dose: 400.0 mg/kg/injection, schedule: Q07DX002 (ip), vehicle: saline
[7] = endpoint: median tumor weight (est.), dose: 100.0 mg/kg/injection, schedule: Q07DX002 (ip), vehicle: saline
[8] = endpoint: median tumor weight (est.), dose: 200.0 mg/kg/injection, schedule: Q07DX002 (ip), vehicle: saline with Tween-80
[9] = endpoint: median tumor weight (est.), dose: 400.0 mg/kg/injection, schedule: Q07DX002 (ip), vehicle: saline with Tween-80
[10] = endpoint: median tumor weight (est.), dose: 800.0 mg/kg/injection, schedule: Q07DX002 (ip), vehicle: saline with Tween-80
[11] = endpoint: median tumor weight (est.), dose: 25.0 mg/kg/injection, schedule: Q07DX002 (ip), vehicle: saline with Tween-80
[12] = endpoint: median tumor weight (est.), dose: 50.0 mg/kg/injection, schedule: Q07DX002 (ip), vehicle: saline with Tween-80
[13] = endpoint: median tumor weight (est.), dose: 100.0 mg/kg/injection, schedule: Q07DX002 (ip), vehicle: saline with Tween-80

Compound: NC(CSC(c1ccccc1)(c1ccccc1)c1ccccc1)C(=O)O (stereo unspecified)
- T/C (endpoint: median tumor weight (est.), dose: 32.0 mg/kg/injection, schedule: Q07DX002 (ip), vehicle: saline with Tween-80): 87 % of control
- T/C (endpoint: median tumor weight (est.), dose: 32.0 mg/kg/injection, schedule: Q07DX003 (ip), vehicle: saline with Tween-80): 46 % of control
- T/C (endpoint: median tumor weight (est.), dose: 64.0 mg/kg/injection, schedule: Q07DX002 (ip), vehicle: saline with Tween-80): 81 % of control
- T/C (endpoint: median tumor weight (est.), dose: 64.0 mg/kg/injection, schedule: Q07DX003 (ip), vehicle: saline with Tween-80): 105 % of control
- T/C (endpoint: median tumor weight (est.), dose: 128.0 mg/kg/injection, schedule: Q07DX002 (ip), vehicle: saline with Tween-80): 63 % of control
- T/C (endpoint: median tumor weight (est.), dose: 128.0 mg/kg/injection, schedule: Q07DX003 (ip), vehicle: saline with Tween-80): 72 % of control
- T/C (endpoint: median tumor weight (est.), dose: 256.0 mg/kg/injection, schedule: Q07DX002 (ip), vehicle: saline with Tween-80): 30 % of control
- T/C (endpoint: median tumor weight (est.), dose: 256.0 mg/kg/injection, schedule: Q07DX003 (ip), vehicle: saline with Tween-80): 45 % of control
- T/C (endpoint: median tumor weight (est.), dose: 512.0 mg/kg/injection, schedule: Q07DX002 (ip), vehicle: saline with Tween-80): 2 % of control

Compound: O=c1[nH]cc(F)c(=O)[nH]1
- T/C (endpoint: median tumor weight (est.), dose: 8.75 mg/kg/injection, schedule: Q07DX002 (ip), vehicle: saline): 59 % of control
- T/C (endpoint: median tumor weight (est.), dose: 24.0 mg/kg/injection, schedule: Q01DX006 (ip), vehicle: saline): 9 % of control
- T/C (endpoint: median tumor weight (est.), dose: 36.0 mg/kg/injection, schedule: Q01DX006 (ip), vehicle: saline): 7 % of control
- T/C (endpoint: optimum tumor weight change, dose: 35.0 mg/kg/injection, schedule: Q07DX002 (ip), vehicle: saline): 48 % of control
- T/C (endpoint: optimum tumor weight change, dose: 70.0 mg/kg/injection, schedule: Q07DX002 (ip), vehicle: saline): 46 % of control
- T/C (endpoint: optimum tumor weight change, dose: 140.0 mg/kg/injection, schedule: Q07DX002 (ip), vehicle: saline): 45 % of control

Compound: CC1CCC(NC(=O)N(CCCl)N=O)CC1 (stereo unspecified)
- T/C (endpoint: median tumor weight (est.), dose: 4.0 mg/kg/injection, schedule: Q07DX002 (ip), vehicle: Klucel (hydroxypropylcellulose) (HPC)): 101 % of control
- T/C (endpoint: median tumor weight (est.), dose: 8.0 mg/kg/injection, schedule: Q07DX002 (ip), vehicle: Klucel (hydroxypropylcellulose) (HPC)): 69 % of control
- T/C (endpoint: median tumor weight (est.), dose: 16.0 mg/kg/injection, schedule: Q07DX002 (ip), vehicle: Klucel (hydroxypropylcellulose) (HPC)): 34 % of control
- T/C (endpoint: median tumor weight (est.), dose: 32.0 mg/kg/injection, schedule: Q07DX002 (ip), vehicle: Klucel (hydroxypropylcellulose) (HPC)): 17 % of control

Compound: N=c1ccn2c(n1)OC1C(O)C(CO)OC12 (stereo unspecified)
- T/C (endpoint: median tumor weight (est.), dose: 100.0 mg/kg/injection, schedule: Q07DX003 (ip), vehicle: saline): 90 % of control
- T/C (endpoint: median tumor weight (est.), dose: 200.0 mg/kg/injection, schedule: Q07DX003 (ip), vehicle: saline): 98 % of control
- T/C (endpoint: median tumor weight (est.), dose: 400.0 mg/kg/injection, schedule: Q07DX003 (ip), vehicle: saline): 92 % of control
- T/C (endpoint: median tumor weight (est.), dose: 800.0 mg/kg/injection, schedule: Q07DX003 (ip), vehicle: saline): 61 % of control
- T/C (endpoint: median tumor weight (est.), dose: 1600.0 mg/kg/injection, schedule: Q07DX003 (ip), vehicle: saline): 40 % of control

Compound: CCOC(=O)C(N)C[S][Sn]([CH3])([CH3])[Cl] (stereo unspecified)
- T/C [1]: 123 % of control
- T/C [2]: 61 % of control
- T/C [3]: 90 % of control
- T/C [4]: 110 % of control

Compound: O=C(c1cccnc1)c1cc(-c2ccccn2)c(=O)n2ccccc12
- T/C [5]: 75 % of control
- T/C [6]: 83 % of control
- T/C (endpoint: median tumor weight (est.), dose: 800.0 mg/kg/injection, schedule: Q07DX002 (ip), vehicle: saline): 88 % of control

Compound: CCC(/C=C/C1OC(=O)C=CC1C)=C\C(C)C/C=C/C(C)=C/C(C)C(=O)C(C)C(O)C(C)C/C(C)=C/C(=O)O (stereo unspecified)
- T/C (endpoint: median tumor weight (est.), dose: 100.0 micrograms/kg/injection, schedule: Q07DX002 (ip), vehicle: other): 56 % of control
- T/C (endpoint: median tumor weight (est.), dose: 200.0 micrograms/kg/injection, schedule: Q07DX002 (ip), vehicle: other): 105 % of control
- T/C (endpoint: median tumor weight (est.), dose: 400.0 micrograms/kg/injection, schedule: Q07DX002 (ip), vehicle: other): 85 % of control
- T/C (endpoint: median tumor weight (est.), dose: 800.0 micrograms/kg/injection, schedule: Q07DX002 (ip), vehicle: other): 102 % of control
- T/C (endpoint: median tumor weight (est.), dose: 1600.0 micrograms/kg/injection, schedule: Q07DX002 (ip), vehicle: other): 98 % of control

Compound: CN(CCN(C)C(=O)CCOS(C)(=O)=O)C(=O)CCOS(C)(=O)=O
- T/C [2]: 121 % of control
- T/C [3]: 92 % of control
- T/C [4]: 51 % of control
- T/C [7]: 51 % of control
- T/C [5]: 12 % of control

Compound: CC(=O)CC(=O)CCC(=O)O
- T/C [4]: 87 % of control
- T/C [7]: 88 % of control
- T/C [5]: 86 % of control
- T/C [6]: 89 % of control

Compound: Oc1cc2ccccc2c(-c2c(O)c(O)cc3ccccc23)c1O
- T/C [8]: 70 % of control
- T/C [9]: 62 % of control
- T/C [10]: 104 % of control

Compound: COC12C(COC(=O)NCCO)C3=C(C(=O)C(C)=C(N)C3=O)N1CC1NC12 (stereo unspecified)
- T/C (endpoint: median tumor weight (est.), dose: 12.5 mg/kg/injection, schedule: Q07DX002 (ip), vehicle: Klucel (hydroxypropylcellulose) (HPC)): 65 % of control
- T/C (endpoint: median tumor weight (est.), dose: 25.0 mg/kg/injection, schedule: Q07DX002 (ip), vehicle: Klucel (hydroxypropylcellulose) (HPC)): 50 % of control
- T/C (endpoint: median tumor weight (est.), dose: 50.0 mg/kg/injection, schedule: Q07DX002 (ip), vehicle: Klucel (hydroxypropylcellulose) (HPC)): 12 % of control

Compound: CCCCCC1c2cc(O)ccc2OC1N1CCOCC1 (stereo unspecified)
- T/C [11]: 103 % of control
- T/C [12]: 74 % of control
- T/C [13]: 92 % of control
- T/C [9]: 81 % of control

Compound: CCCCCCCCCCCCCCCCCCCCCC(=O)Nc1ccn(C2OC(CO)C(O)C2O)c(=O)n1 (stereo unspecified)
- T/C [13]: 83 % of control
- T/C [8]: 35 % of control

Compound: O=P(O)(NCCCl)NCCCl
- T/C [2]: 52 % of control
- T/C [3]: 100 % of control
- T/C [4]: 60 % of control

Compound: O=C1NC(=O)/C(=C/C=C/c2ccccc2)S1
- T/C [8]: 67 % of control
- T/C [9]: 86 % of control
- T/C [10]: 63 % of control

Compound: CN(C)C1C(=O)C(C(=O)NP(=O)(NCCCO)N(CCCl)CCCl)=C(O)C2(O)C(=O)C3=C(O)c4c(O)cccc4C(C)(O)C3CC12 (stereo unspecified)
- T/C [13]: 176 % of control
- T/C [8]: 42 % of control

Compound: C[CH2][Sn]([CH2]C)([CH2]C(=O)OC)[CH2]C(=O)OC
- T/C (endpoint: median tumor weight (est.), dose: 1.56 mg/kg/injection, schedule: Q07DX002 (ip), vehicle: saline with Tween-80): 51 % of control
- T/C (endpoint: median tumor weight (est.), dose: 3.12 mg/kg/injection, schedule: Q07DX002 (ip), vehicle: saline with Tween-80): 113 % of control
- T/C (endpoint: median tumor weight (est.), dose: 6.25 mg/kg/injection, schedule: Q07DX002 (ip), vehicle: saline with Tween-80): 109 % of control
- T/C (endpoint: median tumor weight (est.), dose: 12.5 mg/kg/injection, schedule: Q07DX002 (ip), vehicle: saline with Tween-80): 65 % of control
- T/C [11]: 74 % of control

Compound: N=c1c(C(=O)OCc2ccccc2)ncc(CCl)n1O
- T/C [12]: 76 % of control
- T/C [13]: 107 % of control
- T/C [9]: 113 % of control
- T/C [10]: 72 % of control

Compound: O=C1N[C@@H]2C(=C[C@H](O)[C@@H](O)[C@H]2O)c2cc3c(c(O)c21)OCO3
- T/C (endpoint: median tumor weight (est.), dose: 1.25 mg/kg/injection, schedule: Q07DX002 (ip), vehicle: saline with Tween-80): 123 % of control
- T/C (endpoint: median tumor weight (est.), dose: 5.0 mg/kg/injection, schedule: Q07DX002 (ip), vehicle: saline with Tween-80): 60 % of control
- T/C (endpoint: median tumor weight (est.), dose: 10.0 mg/kg/injection, schedule: Q07DX002 (ip), vehicle: saline with Tween-80): 69 % of control
- T/C (endpoint: median tumor weight (est.), dose: 20.0 mg/kg/injection, schedule: Q07DX002 (ip), vehicle: saline with Tween-80): 43 % of control

Compound: C[C@@H]1CC[C@]2(C)CC[C@]3(C)C(=CC[C@@H]4[C@@]5(C)CC[C@@H](OC(=O)c6ccc(O)cc6)C(C)(C)[C@@H]5C[C@H](O)[C@]43C)[C@@H]2[C@H]1C(=O)O
- T/C (endpoint: median tumor weight (est.), dose: 0.12 mg/kg/injection, schedule: Q07DX002 (ip), vehicle: saline with Tween-80): 164 % of control
- T/C (endpoint: median tumor weight (est.), dose: 0.5 mg/kg/injection, schedule: Q07DX002 (ip), vehicle: saline with Tween-80): 49 % of control
- T/C (endpoint: median tumor weight (est.), dose: 1.0 mg/kg/injection, schedule: Q07DX002 (ip), vehicle: saline with Tween-80): 50 % of control
- T/C (endpoint: median tumor weight (est.), dose: 2.0 mg/kg/injection, schedule: Q07DX002 (ip), vehicle: saline with Tween-80): 50 % of control

Compound: Cc1cc(NCCCN(C)C)c2ccc3c(ccc4c(NCCCN(C)C)cc(C)nc43)c2n1
- T/C (endpoint: median tumor weight (est.), dose: 0.78 mg/kg/injection, schedule: Q07DX002 (ip), vehicle: saline): 97 % of control
- T/C (endpoint: median tumor weight (est.), dose: 1.56 mg/kg/injection, schedule: Q07DX002 (ip), vehicle: saline): 91 % of control
- T/C (endpoint: median tumor weight (est.), dose: 3.12 mg/kg/injection, schedule: Q07DX002 (ip), vehicle: saline): 115 % of control
- T/C [1]: 100 % of control
